Assay results from patent publication US8518466B2 (Shenzhen Hazardous Waste Treatment Station Ltd., priority 2008, dated 2013).

Test system: weaned piglet
Conditions: piglets
Method: According to the weight, sex, litter, the 60 weaned piglets were randomly divided into five groups. Group 1 is the control group using corn-soybean meal-dray whey powder diet with adding 150 mg/kg of basic copper chloride but without adding selenium. Group 2 and 3 are testing group using corn-soybean meal-dray whey powder diet with adding 0.3 mg/kg and 0.5 mg/kg of sodium selenite respectively, and adding 150 mg/kg of basic copper chloride. […] The testing period is 35 days, including 7 days of pre-test period and 28 days of formal test period.

With `O=[Se](O)O` [sodium selenite] the “selenium level of kidney compared with control group” value (0.3 and 0.5 mg/kg in diet) was “significantly higher”, the “selenium level of liver compared with control group” value (0.3 and 0.5 mg/kg in diet) was “significantly higher” and the “copper content in liver among groups” value (all groups) was “almost the same”.
